Tests used:
[1] = target: T1, Recombinant ROCK1 (amino acids 1-477) (Homo sapiens, UniProt Q13464); assay: ROCK inhibition assay, LANCE Ultra TR-FRET (ROCK1); assay type: biochemical; conditions: 1 mM of ATP
T1 construct: Recombinant ROCK1 (amino acids 1-477)
Protocol: (§1) Kinase IC50 was determined through an in vitro assay based on LANCE Ultra TR-FRET (Time-Resolved Fluorescence Resonance Energy Transfer) homogeneous technologies method 5 (Perkin Elmer). Recombinant ROCK1 (amino acids 1-477) and ROCK2 (amino acids 5-554) proteins were purchased from Carna Biosciences and SignalChem. Compound activities were measured by Envision and IC50s were calculated. The assays were performed in white LUMITRAC™ 200 96 well half-area microplates from Greiner Bio-One. The kinase reaction buffer consisted of 50 mM HEPES pH 7.5, 1 mM EGTA, 10 mM MgCl2, 2 mM DTT and 0.01% 10 Tween-20. Kinases were incubated with 50 nM (ULight-CREBtide) substrate in the presence of 1 mM (ROCK1) or 1 mM (ROCK2) of ATP. The kinase reaction was carried out for 1 hour before addition of a stopping buffer to a final of 10 mM EDTA and 0.6 nM of LANCE Ultra Europium anti-phospho-CREB (Ser133) antibody (PerkinElmer TRF0200) in LANCE detection buffer. All assay incubations were performed at room temperature, and the microplates were sealed with polyester film during that time. The reaction was incubated for 1 hour, and the signal was read in Envision in TR-FRET mode (excitation at 320 nm and emission at 615/665 nm).
(§2) As used herein, a way to describe potency of inhibitory activity (nM) is a value of inhibitory activity at 50% (IC50).

[2] = target: T2, Recombinant ROCK2 (amino acids 5-554) (Homo sapiens, UniProt O75116); assay: ROCK inhibition assay, LANCE Ultra TR-FRET (ROCK2); assay type: biochemical; conditions: 1 mM of ATP
T2 construct: ROCK2 (amino acids 5-554)
Protocol: as §1, §2

T2 sequence (O75116 5-554): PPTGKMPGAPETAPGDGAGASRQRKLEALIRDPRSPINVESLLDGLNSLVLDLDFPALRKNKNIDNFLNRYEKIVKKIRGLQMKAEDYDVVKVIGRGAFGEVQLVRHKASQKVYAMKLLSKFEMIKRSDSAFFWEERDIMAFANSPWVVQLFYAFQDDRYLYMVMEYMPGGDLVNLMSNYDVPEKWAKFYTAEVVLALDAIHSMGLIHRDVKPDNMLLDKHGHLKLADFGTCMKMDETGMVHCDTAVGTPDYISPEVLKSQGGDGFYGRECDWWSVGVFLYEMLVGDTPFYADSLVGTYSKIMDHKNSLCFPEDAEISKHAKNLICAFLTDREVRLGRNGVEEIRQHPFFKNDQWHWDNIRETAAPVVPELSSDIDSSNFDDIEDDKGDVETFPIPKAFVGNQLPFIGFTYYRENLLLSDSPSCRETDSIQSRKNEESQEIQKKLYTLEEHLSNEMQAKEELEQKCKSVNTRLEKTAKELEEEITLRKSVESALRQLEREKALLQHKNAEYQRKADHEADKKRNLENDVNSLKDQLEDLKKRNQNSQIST
T1 sequence (Q13464 1-477): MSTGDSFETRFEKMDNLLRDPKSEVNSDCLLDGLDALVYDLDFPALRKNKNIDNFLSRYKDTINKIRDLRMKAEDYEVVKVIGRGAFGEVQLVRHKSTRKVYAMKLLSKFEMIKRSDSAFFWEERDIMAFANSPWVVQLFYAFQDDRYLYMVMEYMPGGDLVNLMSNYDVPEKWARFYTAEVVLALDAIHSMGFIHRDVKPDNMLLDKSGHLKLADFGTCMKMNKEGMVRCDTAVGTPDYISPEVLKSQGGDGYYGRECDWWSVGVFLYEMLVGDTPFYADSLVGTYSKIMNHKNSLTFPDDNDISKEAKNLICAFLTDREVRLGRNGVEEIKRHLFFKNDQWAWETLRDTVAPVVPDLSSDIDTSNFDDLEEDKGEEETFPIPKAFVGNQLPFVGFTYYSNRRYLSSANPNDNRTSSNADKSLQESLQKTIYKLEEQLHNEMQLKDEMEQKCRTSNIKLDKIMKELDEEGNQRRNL

IC50 [1] | IC50 [2] | SMILES
> 501 nM | < 20 nM | COc1[nH]ncc1-c1ccc2c(C(=O)C3COc4ccc(Cl)cc4C3)cn(CC3CN(C)C3)c2c1 (centres unmarked) [Compound 1-44]
> 501 nM | 21 to 200 nM | COc1ccc2c(c1)CC(C(=O)c1cn(C[C@H]3CCN3C)c3cc(-c4cn[nH]c4F)ccc13)CO2 (some centres unmarked) [Compound 1-45]
> 501 nM | 21 to 200 nM | COc1ccc2c(c1)CC(C(=O)c1cn(C[C@@H]3CCN3C)c3cc(-c4cn[nH]c4Cl)ccc13)CO2 (some centres unmarked) [Compound 1-46]
> 501 nM | < 20 nM | COc1ccc2c(c1)CC(C(=O)c1cn(C[C@@H]3CCN3C)c3cc(-c4cn[nH]c4OC)ccc13)CO2 (some centres unmarked) [Compound 1-47]
> 501 nM | 21 to 200 nM | COc1ccc2c(c1)CC(C(=O)c1cn(C[C@@H]3CCN3C)c3cc(-c4cn[nH]c4F)ccc13)CO2 (some centres unmarked) [Compound 1-48]
> 501 nM | 21 to 200 nM | COc1ccc2c(c1)CC(C(=O)c1cn(C[C@H]3CCN3C)c3cc(-c4cn[nH]c4OC)ccc13)CO2 (some centres unmarked) [Compound 1-49]
> 501 nM | < 20 nM | COc1ccc2c(c1)CC(C(=O)c1cn(C[C@H]3CCN3C)c3cc(-c4cn[nH]c4Cl)ccc13)CO2 (some centres unmarked) [Compound 1-50]
> 501 nM | < 20 nM | COc1ccc2c(c1)C[C@H](C(=O)c1cn(C[C@H]3CCN3C)c3cc(-c4cn[nH]c4Cl)ccc13)CO2 [Compound 1-51]
> 501 nM | 21 to 200 nM | CCN1CC[C@@H]1Cn1cc(C(=O)C2COc3ccc(OC)cc3C2)c2ccc(-c3cn[nH]c3OC)cc21 (some centres unmarked) [Compound 1-56]
> 501 nM | 201 to 500 nM | CN1CC[C@@H]1Cn1cc(C(=O)C2COc3ccc(Cl)cc3C2)c2ccc(-c3cn[nH]c3F)cc21 (some centres unmarked) [Compound 1-57]
> 501 nM | 21 to 200 nM | CCN1CC[C@@H]1Cn1cc(C(=O)C2COc3ccc(OC)cc3C2)c2ccc(-c3cn[nH]c3Cl)cc21 (some centres unmarked) [Compound 1-58]
> 501 nM | < 20 nM | CCN1CC[C@@H]1Cn1cc(C(=O)[C@@H]2COc3ccc(OC)cc3C2)c2ccc(-c3cn[nH]c3Cl)cc21 [Compound 1-59]
21 to 200 nM | < 20 nM | NCCn1cc(C(=O)C2COc3ccc(Cl)cc3C2)c2cnc(-c3c[nH]nc3Cl)cc21 (centres unmarked) [Compound 2-1, [1-(2-aminoethyl)-6-(3-chloro-1H-pyrazol-4-yl)pyrrolo[3,2-c]pyridin-3-yl]-(6-chlorochroman-3-yl) methanone]
21 to 200 nM | < 20 nM | CC(N)Cn1cc(C(=O)C2COc3ccc(F)cc3C2)c2cnc(-c3c[nH]nc3Cl)cc21 (centres unmarked) [Compound 2-2]
21 to 200 nM | < 20 nM | NCCn1cc(C(=O)C2COc3ccc(F)cc3C2)c2cnc(-c3c[nH]nc3Cl)cc21 (centres unmarked) [Compound 2-3]
< 20 nM | < 20 nM | NCCn1cc(C(=O)C2COc3ccc(F)cc3C2)c2ccc(-c3c[nH]nc3Cl)cc21 (centres unmarked) [Compound 2-4]
21 to 200 nM | < 20 nM | C[C@@H](N)Cn1cc(C(=O)C2COc3ccc(Cl)cc3C2)c2ccc(-c3c[nH]nc3Cl)cc21 (some centres unmarked) [Compound 2-5]
21 to 200 nM | < 20 nM | COc1n[nH]cc1-c1ccc2c(C(=O)C3COc4ccc(Cl)cc4C3)cn(C[C@@H](C)N)c2c1 (some centres unmarked) [Compound 2-6]
< 20 nM | < 20 nM | C[C@H](N)Cn1cc(C(=O)C2COc3ccc(Cl)cc3C2)c2ccc(-c3c[nH]nc3Cl)cc21 (some centres unmarked) [Compound 2-7]
> 501 nM | > 501 nM | C[C@H](N)Cn1cc(C(=O)C2COc3ccc(Cl)cc3C2)c2ccc(-c3cn[nH]c3F)cc21 (some centres unmarked) [Compound 2-8]
201 to 500 nM | < 20 nM | COc1n[nH]cc1-c1ccc2c(C(=O)C3COc4ccc(Cl)cc4C3)cn(C[C@H](C)N)c2c1 (some centres unmarked) [Compound 2-9]
> 501 nM | < 20 nM | C[C@@H](Cn1cc(C(=O)C2COc3ccc(Cl)cc3C2)c2ccc(-c3cn[nH]c3Cl)cc21)N(C)C (stereo partly drawn) [Compound 2-12, (6-chlorochroman-3-yl)-[6-(5-chloro-1H-pyrazol-4-yl)-1-[(2S)-2-(dimethylamino)propyl]indol-3-yl]methanone]
21 to 200 nM | 21 to 200 nM | CN(C)C1(Cn2cc(C(=O)C3COc4ccc(Cl)cc4C3)c3ccc(-c4cn[nH]c4Cl)cc32)CC1 (centres unmarked) [Compound 2-13]
201 to 500 nM | < 20 nM | COc1[nH]ncc1-c1ccc2c(C(=O)C3COc4ccc(Cl)cc4C3)cn(C[C@@H](C)N(C)C)c2c1 (some centres unmarked) [Compound 2-14]
201 to 500 nM | < 20 nM | C[C@H](Cn1cc(C(=O)C2COc3ccc(Cl)cc3C2)c2ccc(-c3cn[nH]c3Cl)cc21)N(C)C (some centres unmarked) [Compound 2-15]

IC50 [1] | IC50 [2] | SMILES
> 501 nM | < 20 nM | C[C@H](Cn1cc(C(=O)C2COc3ccc(Cl)cc3C2)c2ccc(-c3cn[nH]c3F)cc21)N(C)C (some centres unmarked) [Compound 2-16]
201 to 500 nM | < 20 nM | C[C@H](Cn1cc(C(=O)[C@@H]2COc3ccc(Cl)cc3C2)c2ccc(-c3cn[nH]c3F)cc21)N(C)C [Compound 2-17]
> 501 nM | < 20 nM | O=C(c1cn(CCN2CCC2)c2nc(-c3c[nH]nc3Cl)ccc12)C1COc2ccc(F)cc2C1 (centres unmarked) [Compound 3-1, [1-[2-(azetidin-1-yl)ethyl]-6-(3-chloro-1H-pyrazol-4-yl)pyrrolo[2,3-b]pyridin-3-yl]-(6-fluorochroman-3-yl)methanone]
> 501 nM | 21 to 200 nM | CNCCn1cc(C(=O)C2COc3ccc(F)cc3C2)c2cnc(-c3c[nH]nc3Cl)cc21 (centres unmarked) [Compound 3-2]
> 501 nM | 21 to 200 nM | CNCCn1cc(C(=O)C2COc3ccc(F)cc3C2)c2ccc(-c3c[nH]nc3Cl)nc21 (centres unmarked) [Compound 3-3]
> 501 nM | 201 to 500 nM | COc1n[nH]cc1-c1ccc2c(C(=O)C3COc4ccc(Cl)cc4C3)cn(CCN3CCC3)c2c1 (centres unmarked) [Compound 3-4, [1-[2-(azetidin-1-yl)ethyl]-6-(3-methoxy-1H-pyrazol-4-yl)indol-3-yl]-(6-chlorochroman-3-yl)methanone]
201 to 500 nM | < 20 nM | CNCCn1cc(C(=O)C2COc3ccc(F)cc3C2)c2ccc(-c3c[nH]nc3Cl)cc21 (centres unmarked) [Compound 3-5]
> 501 nM | 21 to 200 nM | COc1n[nH]cc1-c1ccc2c(C(=O)C3COc4ccc(F)cc4C3)cn(CCCN(C)C)c2c1 (centres unmarked) [Compound 3-6]
201 to 500 nM | 21 to 200 nM | COc1n[nH]cc1-c1ccc2c(C(=O)[C@@H]3COc4ccc(Cl)cc4C3)cn(CCCN(C)C)c2c1 [Compound 3-7]
> 501 nM | 201 to 500 nM | COc1n[nH]cc1-c1ccc2c(C(=O)[C@H]3COc4ccc(Cl)cc4C3)cn(CCCN(C)C)c2c1 [Compound 3-8]
> 501 nM | 201 to 500 nM | CNCCn1cc(C(=O)C2COc3ccc(Cl)cc3C2)c2ccc(-c3cn[nH]c3Cl)cc21 (centres unmarked) [Compound 3-9]
> 501 nM | 21 to 200 nM | CCN(C)CCn1cc(C(=O)C2COc3ccc(Cl)cc3C2)c2ccc(-c3cn[nH]c3Cl)cc21 (centres unmarked) [Compound 3-10]
> 501 nM | 21 to 200 nM | CCN(C)CCn1cc(C(=O)C2COc3ccc(Cl)cc3C2)c2ccc(-c3cn[nH]c3OC)cc21 (centres unmarked) [Compound 3-11]
> 501 nM | 21 to 200 nM | CCN(CC)CCn1cc(C(=O)C2COc3ccc(Cl)cc3C2)c2ccc(-c3cn[nH]c3Cl)cc21 (centres unmarked) [Compound 3-12]
> 501 nM | < 20 nM | CCN(CC)CCn1cc(C(=O)C2COc3ccc(Cl)cc3C2)c2ccc(-c3cn[nH]c3OC)cc21 (centres unmarked) [Compound 3-13]
> 501 nM | < 20 nM | CCN(CC)CCn1cc(C(=O)[C@@H]2COc3ccc(Cl)cc3C2)c2ccc(-c3cn[nH]c3OC)cc21 [Compound 3-14]
201 to 500 nM | < 20 nM | CCN(CC)CCn1cc(C(=O)[C@@H]2COc3ccc(OC)cc3C2)c2ccc(-c3cn[nH]c3Cl)cc21 [Compound 3-20]
201 to 500 nM | 21 to 200 nM | CCN(CC)CCn1cc(C(=O)[C@@H]2COc3ccc(OC)cc3C2)c2ccc(-c3cn[nH]c3Cl)cc21 [Compound 3-21]
201 to 500 nM | < 20 nM | CCN(CC)CCn1cc(C(=O)C2COc3ccc(OC)cc3C2)c2ccc(-c3cn[nH]c3F)cc21 (centres unmarked) [Compound 3-22]
> 501 nM | < 20 nM | CNCCn1cc(C(=O)C2COc3ccc(OC)cc3C2)c2ccc(-c3cn[nH]c3Cl)cc21 (centres unmarked) [Compound 3-23]
201 to 500 nM | < 20 nM | CCN(C)CCn1cc(C(=O)C2COc3ccc(OC)cc3C2)c2ccc(-c3cn[nH]c3Cl)cc21 (centres unmarked) [Compound 3-25]
> 501 nM | < 20 nM | CCN(C)CCn1cc(C(=O)[C@@H]2COc3ccc(OC)cc3C2)c2ccc(-c3cn[nH]c3Cl)cc21 [Compound 3-26]
> 501 nM | 21 to 200 nM | CCN(C)CCn1cc(C(=O)[C@@H]2COc3ccc(OC)cc3C2)c2ccc(-c3cn[nH]c3Cl)cc21 [Compound 3-28]
201 to 500 nM | 21 to 200 nM | CCN(C)CCn1cc(C(=O)C2COc3ccc(OC)cc3C2)c2ccc(-c3cn[nH]c3F)cc21 (centres unmarked) [Compound 3-30]

Reference: US20240360139A1, “BLOOD BRAIN BARRIER PENETRATING SELECTIVE INHIBITORS OF ROCK2 PROTEIN KINASES AND USES THEREOF” (GENOSCO Inc., priority 2023, published 2024)
